We go through one compound from PMC3102069, “Charge Isomers of Myelin Basic Protein: Structure and Interactions with Membranes, Nucleotide Analogues, and Calmodulin” (PLoS ONE, 2011).

This assay has as its target T1, rmC1 (recombinant murine 18.5-kDa myelin basic protein, C1 charge component); rmC8 is its six-fold Gln variant (Mus musculus, UniProt P04370).
T1 construct: gene Mbp
As to the kind of experiment: fluorescence, FRET from Trp to mant (ex […] nm, em […] nm). It counts as binding. To be noted: 0.25 µM rmC1, 0.5-12.5 µM nucleotide, 10 mM HEPES pH 7.5; labelled compound.

T1 sequence (P04370 1-169 isoform P04370-5 limits assumed): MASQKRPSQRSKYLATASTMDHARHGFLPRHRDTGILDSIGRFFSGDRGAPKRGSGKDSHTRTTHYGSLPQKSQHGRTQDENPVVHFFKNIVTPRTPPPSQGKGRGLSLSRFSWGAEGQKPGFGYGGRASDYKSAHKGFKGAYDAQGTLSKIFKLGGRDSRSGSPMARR

Take `CNc1ccccc1C(=O)O[C@H]1[C@@H](O)[C@H](n2cnc3c(N)ncnc32)O[C@@H]1COP(=O)(O)OP(=O)(O)OP(=O)(O)O` [mant-ATP]: the “fluorescence, FRET from Trp to mant (ex 280 nm, em 448 nm)” value is “while both mant-ATP and mant-GTP bound to rmC1, mant-AMP did not”.
